From patent US9073855B2, “BCL-2 selective apoptosis-inducing agents for the treatment of cancer and immune diseases” (AbbVie Inc., priority 2008, dated 2015)

Columns and labels:
[1] = target: GST-Bcl-XL (Homo sapiens, UniProt Q07817); assay: TR-FRET binding assay, GST-Bcl-XL with F-Bak peptide probe; conditions: TR-FRET Binding Affinity
Protocol: (§1) Tb-anti-GST antibody was purchased from Invitrogen (Catalog No. PV4216).
(§2) Representative compounds were serially diluted in dimethyl sulfoxide (DMSO) starting at 50 μM (2× starting concentration; 10% DMSO) and 10 μL were transferred into a 384-well plate.
(§3) The samples were then mixed on a shaker for 1 minute and incubated for an additional 3 hours at room temperature. For each assay, the probe/antibody and protein/probe/antibody were included on each assay plate as negative and positive controls, respectively. Fluorescence was measured on the ENVISION plate reader (Perkin Elmer) using a 340/35 nm excitation filter and 520/525 (F-Bak peptide) and 495/510 nm (Tb-labeled […] antibody) emission filters.
(§4) The inhibition constant (Ki) is the dissociation constant of an enzyme-inhibitor complex or a protein/small molecule complex, wherein the small molecule is inhibiting binding of one protein to another protein or peptide. […] Inhibition constants were determined using Wang's equation (Wang Z-X., An Exact Mathematical Expression For Describing Competitive Binding Of Two Different Ligands To A Protein Molecule. FEBS Lett. 1995, 360:111-4).

[2] = target: GST-Bcl-2 (Homo sapiens, UniProt P10415); assay: TR-FRET binding assay, GST-Bcl-2 with F-Bak peptide probe; conditions: for Ki: TR-FRET Binding Affinity
Protocol: as §1, §2, §3, §4

[3] = GST-Bcl-XL, F-Bak peptide probe
[4] = TR-FRET, Bcl-XL Ki divided by Bcl-2 Ki

Chain of GST-Bcl-XL (Q07817 whole entry): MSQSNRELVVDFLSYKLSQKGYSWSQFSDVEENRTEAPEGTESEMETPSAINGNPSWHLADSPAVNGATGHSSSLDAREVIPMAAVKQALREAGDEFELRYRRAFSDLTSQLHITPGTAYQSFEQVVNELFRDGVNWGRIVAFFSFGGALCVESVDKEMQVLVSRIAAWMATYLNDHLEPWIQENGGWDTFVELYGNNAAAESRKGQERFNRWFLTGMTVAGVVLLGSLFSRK
Chain of GST-Bcl-2 (P10415 whole entry): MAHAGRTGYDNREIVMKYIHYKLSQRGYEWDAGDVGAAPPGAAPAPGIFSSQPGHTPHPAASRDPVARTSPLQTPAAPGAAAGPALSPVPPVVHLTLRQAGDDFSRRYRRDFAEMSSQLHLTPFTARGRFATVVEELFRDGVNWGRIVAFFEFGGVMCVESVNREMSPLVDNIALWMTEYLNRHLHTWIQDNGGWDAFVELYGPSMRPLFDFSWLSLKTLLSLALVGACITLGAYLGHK

Structure (SMILES)	Ki [1, 3] [nM]	Ki [2] [nM]	further results
O=C(NS(=O)(=O)c1ccc(NCCCN2CCOCC2)c([N+](=O)[O-])c1)c1ccc(N2CCN(Cc3ccccc3-c3ccc(Cl)cc3)CC2)cc1Oc1ccc2ccccc2c1 [Example 36, 4-{4-[(4′-chloro-1,1′-biphenyl-2-yl)methyl]piperazin-1-yl}-N-({4-[(3-morpholin-4-ylpropyl)amino]-3-nitrophenyl}sulfonyl)-2-(2-naphthyloxy)benzamide]	8.99	–	Ki ([2]; GST-Bcl-2, F-Bak peptide probe): 0.796 nM
O=C(NS(=O)(=O)c1ccc(NCC2CCOCC2)c(S(=O)(=O)C(F)(F)F)c1)c1ccc(N2CCN(Cc3cc(OCCN4CCOCC4)ccc3-c3ccc(Cl)cc3)CC2)cc1Oc1ccccc1 [Example 117, 4-(4-{[4′-chloro-4-(2-morpholin-4-ylethoxy)-1,1′-biphenyl-2-yl]methyl}piperazin-1-yl)-2-phenoxy-N-({4-[(tetrahydro-2H-pyran-4-ylmethyl)amino]-3-[(trifluoromethyl)sulfonyl]phenyl}sulfonyl)benzamide]	> 660	–	Ki ([2]; GST-Bcl-2, F-Bak peptide probe): 2.3 nM
CC1(C)CCC(CN2CCN(c3ccc(C(=O)NS(=O)(=O)c4cnc(OCC5CCOCC5)c(Cl)c4)c(Oc4cccc5[nH]cnc45)c3)CC2)=C(c2ccc(Cl)cc2)C1 [Example 500, 2-(1H-benzimidazol-4-yloxy)-4-(4-{[2-(4-chlorophenyl)-4,4-dimethylcyclohex-1-en-1-yl]methyl}piperazin-1-yl)-N-{[5-chloro-6-(tetrahydro-2H-pyran-4-ylmethoxy)pyridin-3-yl]sulfonyl}benzamide]	–	< 0.01	Ki [1]: 147 nM; Binding selectivity ratio (Bcl-XL Ki/Bcl-2 Ki) [2, 4]: >14734.0
CN(C)CC(=O)N1CC[C@@H](Nc2ccc(S(=O)(=O)NC(=O)c3ccc(N4CCN(CC5=C(c6ccc(Cl)cc6)CC(C)(C)CC5)CC4)cc3Oc3cccc4[nH]cnc34)cc2[N+](=O)[O-])C1 [Example 430, 2-(1H-benzimidazol-4-yloxy)-4-(4-{[2-(4-chlorophenyl)-4,4-dimethylcyclohex-1-en-1-yl]methyl}piperazin-1-yl)-N-[(4-{[(3R)-1-(N,N-dimethylglycyl)pyrrolidin-3-yl]amino}-3-nitrophenyl)sulfonyl]benzamide]	0.998	–	Ki ([2]; GST-Bcl-2, F-Bak peptide probe): < 0.01 nM; Binding selectivity ratio (Bcl-XL Ki/Bcl-2 Ki) ([2]; ratio of TR-FRET Ki values, Bcl-XL over Bcl-2): 99.8
CC1(C)CCC(CN2CCN(c3ccc(C(=O)NS(=O)(=O)c4cnc(OCC5(F)CCOCC5)c(Cl)c4)c(Oc4cccc5[nH]nnc45)c3)CC2)=C(c2ccc(Cl)cc2)C1 [Example 515, 2-(1H-benzotriazol-4-yloxy)-N-({5-chloro-6-[(4-fluorotetrahydro-2H-pyran-4-yl)methoxy]pyridin-3-yl}sulfonyl)-4-(4-{[2-(4-chlorophenyl)-4,4-dimethylcyclohex-1-en-1-yl]methyl}piperazin-1-yl)benzamide]	–	< 0.01	Ki [1]: 140 nM; Binding selectivity ratio (Bcl-XL Ki/Bcl-2 Ki) [2, 4]: >13994.0
O=C(NS(=O)(=O)c1ccc(NCC2CCOCC2)c(S(=O)(=O)C(F)(F)F)c1)c1ccc(N2CCN(Cc3ccccc3-c3ccc(Cl)cc3)CC2)cc1Oc1ccccc1 [Example 163, 4-{4-[(4′-chloro-1,1′-biphenyl-2-yl)methyl]piperazin-1-yl}-2-phenoxy-N-({4-[(tetrahydro-2H-pyran-4-ylmethyl)amino]-3-[(trifluoromethyl)sulfonyl]phenyl}sulfonyl)benzamide]	> 660	–	Ki ([2]; GST-Bcl-2, F-Bak peptide probe): 5.62 nM
CC1(C)CCC(CN2CCN(c3ccc(C(=O)NS(=O)(=O)c4ccc(NC[C@H]5CN(C6COC6)CCO5)c([N+](=O)[O-])c4)c(Oc4cccc5[nH]ncc45)c3)CC2)=C(c2ccc(Cl)cc2)C1 [Example 540, 4-(4-{[2-(4-chlorophenyl)-4,4-dimethylcyclohex-1-en-1-yl]methyl}piperazin-1-yl)-2-(1H-indazol-4-yloxy)-N-{[3-nitro-4-({[(2S)-4-(oxetan-3-yl)morpholin-2-yl]methyl}amino)phenyl]sulfonyl}benzamide]	–	< 0.01	–
CN1CCN(CCNc2ccc(S(=O)(=O)NC(=O)c3ccc(N4CCN(CC5=C(c6ccc(Cl)cc6)CC(C)(C)CC5)CC4)cc3Oc3ccc4[nH]ccc4c3)cc2[N+](=O)[O-])CC1 [Example 95, 4-(4-{[2-(4-chlorophenyl)-4,4-dimethylcyclohex-1-en-1-yl]methyl}piperazin-1-yl)-2-(1H-indol-5-yloxy)-N-[(4-{[2-(4-methylpiperazin-1-yl)ethyl]amino}-3-nitrophenyl)sulfonyl]benzamide]	15.7	–	Ki ([2]; GST-Bcl-2, F-Bak peptide probe): 0.06 nM
CC1(C)CCC(CN2CCN(c3ccc(C(=O)NS(=O)(=O)c4ccc(NCC5(F)CCOCC5)c([N+](=O)[O-])c4)c(Oc4cccc5[nH]cnc45)c3)CC2)=C(c2ccc(Cl)cc2)C1 [Example 441, 2-(1H-benzimidazol-4-yloxy)-4-(4-{[2-(4-chlorophenyl)-4,4-dimethylcyclohex-1-en-1-yl]methyl}piperazin-1-yl)-N-[(4-{[(4-fluorotetrahydro-2H-pyran-4-yl)methyl]amino}-3-nitrophenyl)sulfonyl]benzamide]	–	< 0.01	Ki [1]: 24.2 nM
CC1(C)CCC(CN2CCN(c3ccc(C(=O)NS(=O)(=O)c4ccc(NC[C@H]5CN(C6COC6)CCO5)c([N+](=O)[O-])c4)c(Oc4cccc5[nH]cnc45)c3)CC2)=C(c2ccc(Cl)cc2)C1 [Example 541, 2-(1H-benzimidazol-4-yloxy)-4-(4-{[2-(4-chlorophenyl)-4,4-dimethylcyclohex-1-en-1-yl]methyl}piperazin-1-yl)-N-{[3-nitro-4-({[(2S)-4-(oxetan-3-yl)morpholin-2-yl]methyl}amino)phenyl]sulfonyl}benzamide]	–	0.167	–
CC1(C)CCC(CN2CCN(c3ccc(C(=O)NS(=O)(=O)c4cnc(OCC5(F)CCC(C#N)CC5)c(Cl)c4)c(Oc4cccc5[nH]ncc45)c3)CC2)=C(c2ccc(Cl)cc2)C1 (stereo not drawn) [Example 549, N-({5-chloro-6-[(cis-4-cyano-1-fluorocyclohexyl)methoxy]pyridin-3-yl}sulfonyl)-4-(4-{[2-(4-chlorophenyl)-4,4-dimethylcyclohex-1-en-1-yl]methyl}piperazin-1-yl)-2-(1H-indazol-4-yloxy)benzamide]	–	< 0.01	–
COCC1(C)CCC(c2ccc(Cl)cc2)=C(CN2CCN(c3ccc(C(=O)NS(=O)(=O)c4cnc(OCC5CCC(C)(O)CC5)c(Cl)c4)c(Oc4cccc5[nH]ncc45)c3)CC2)C1 (stereo not drawn) [Example 539, N-({5-chloro-6-[(trans-4-hydroxy-4-methylcyclohexyl)methoxy]pyridin-3-yl}sulfonyl)-4-(4-{[2-(4-chlorophenyl)-5-(methoxymethyl)-5-methylcyclohex-1-en-1-yl]methyl}piperazin-1-yl)-2-(1H-indazol-4-yloxy)benzamide]	–	< 0.01	–
O=C(NS(=O)(=O)c1ccc(NCCCN2CCOCC2)c([N+](=O)[O-])c1)c1ccc(N2CCN(Cc3ccccc3-c3ccc(Cl)cc3)CC2)cc1Oc1ccc2[nH]ccc2c1 [Example 59, 4-{4-[(4′-chloro-1,1′-biphenyl-2-yl)methyl]piperazin-1-yl}-2-(1H-indol-5-yloxy)-N-({4-[(3-morpholin-4-ylpropyl)amino]-3-nitrophenyl}sulfonyl)benzamide]	1260	–	–
CC1(C)CCC(CN2CCN(c3ccc(C(=O)NS(=O)(=O)c4cnc(NCC5CCC(C)(O)CC5)c([N+](=O)[O-])c4)c(Oc4cccc5[nH]ncc45)c3)CC2)=C(c2ccc(Cl)cc2)C1 (stereo not drawn) [Example 555, 4-(4-{[2-(4-chlorophenyl)-4,4-dimethylcyclohex-1-en-1-yl]methyl}piperazin-1-yl)-N-[(6-{[(cis-4-hydroxy-4-methylcyclohexyl)methyl]amino}-5-nitropyridin-3-yl)sulfonyl]-2-(H-indazol-4-yloxy)benzamide]	–	< 0.01	–
COC1(C)CCC(c2ccc(Cl)cc2)=C(CN2CCN(c3ccc(C(=O)NS(=O)(=O)c4cnc(OCC5CCC(C)(O)CC5)c(Cl)c4)c(Oc4cccc5[nH]ncc45)c3)CC2)C1 (stereo not drawn) [Example 553, N-({5-chloro-6-[(trans-4-hydroxy-4-methylcyclohexyl)methoxy]pyridin-3-yl}sulfonyl)-4-(4-{[2-(4-chlorophenyl)-5-methoxy-5-methylcyclohex-1-en-1-yl]methyl}piperazin-1-yl)-2-(1H-indazol-4-yloxy)benzamide]	–	< 0.01	–
CC1(C)CCC(CN2CCN(c3ccc(C(=O)NS(=O)(=O)c4cnc(OCC5CCC(C)(O)CC5)c(C#N)c4)c(Oc4cccc5[nH]ncc45)c3)CC2)=C(c2ccc(Cl)cc2)C1 (stereo not drawn) [Example 544, 4-(4-{[2-(4-chlorophenyl)-4,4-dimethylcyclohex-1-en-1-yl]methyl}piperazin-1-yl)-N-({5-cyano-6-[(trans-4-hydroxy-4-methylcyclohexyl)methoxy]pyridin-3-yl}sulfonyl)-2-(1H-indazol-4-yloxy)benzamide]	–	< 0.01	–
CN1[C@@H]2CC[C@H]1CC(Nc1ccc(S(=O)(=O)NC(=O)c3ccc(N4CCN(CC5=C(c6ccc(Cl)cc6)CC(C)(C)CC5)CC4)cc3Oc3ccc4[nH]ccc4c3)cc1[N+](=O)[O-])C2 (stereo partly drawn) [Example 467, 4-(4-{[2-(4-chlorophenyl)-4,4-dimethylcyclohex-1-en-1-yl]methyl}piperazin-1-yl)-2-(1H-indol-5-yloxy)-N-[(4-{[(1R,5S)-8-methyl-8-azabicyclo[3.2.1]oct-3-yl]amino}-3-nitrophenyl)sulfonyl]benzamide]	–	0.08	–
